Measurements as given in US20240400546A1, “COMPOUNDS AND USES THEREOF” (JANSSEN PHARMACEUTICA NV, priority 2016, published 2024).
Where “and” joins values, the source holds several entries; their conditions need not be identical. Equal values may be shown once.

Molecular target: T1, SCD5 (Homo sapiens, UniProt Q86SK9)
T1 construct: host or cells: S. cerevisiae ole1Δ strain, plasmid pRS316 with TDH3 promoter and CYC1 terminator
T1 sequence (Q86SK9 1-330): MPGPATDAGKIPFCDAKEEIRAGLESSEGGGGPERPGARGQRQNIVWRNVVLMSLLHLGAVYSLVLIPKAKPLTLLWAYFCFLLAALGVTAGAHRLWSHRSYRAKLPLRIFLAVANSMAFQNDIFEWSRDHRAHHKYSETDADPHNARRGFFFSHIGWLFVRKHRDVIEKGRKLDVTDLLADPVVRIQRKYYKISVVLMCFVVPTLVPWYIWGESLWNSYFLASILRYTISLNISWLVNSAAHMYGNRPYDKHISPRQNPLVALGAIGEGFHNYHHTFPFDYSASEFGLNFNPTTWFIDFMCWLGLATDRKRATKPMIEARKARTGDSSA
Experiment: Growth inhibition of humanized yeast expressing SCD5 as sole desaturase
Type: cell-based
Conditions: humanized yeast expressing SCD5
Protocol: (§1) Strain ole1Δ (yeast ole1 deletion mutant) was constructed by deleting OLE1 with NAT-MX6 in BY4741, amplifying the deletion cassette from the genomic DNA of the resulting strain with primers flanking the ORF by 1000 bp upstream and downstream, transforming the resulting deletion cassette into W303 pdr1Δ pdr3Δ, and plating transformants on YPD media containing G418 (200 μg/mL) and nourseothricin (100 μg/mL) with 0.01% TWEEN®-20 and 0.5 mM oleic and palmitoleic acids.
(§2) The coding sequence of yeast OLE1 was also cloned into this plasmid). These clones were then transformed into the ole1Δ strain and plated on CSM-Ura media (CSM lacking uracil) with 2% glucose (w/v) and independent colonies were isolated and amplified.
(§3) All compound profiling experiments were performed using the same basic protocol. Different genetic backgrounds (e.g., gene deletions) or conditions (e.g., addition of oleic and palmitoleic acid) were replaced as indicated below.
(§4) Yeast were cultured using standard techniques in complete synthetic media (CSM) and yeast nitrogen base supplemented with 2% (w/v) carbon source (glucose, raffinose, or galactose) to regulate the expression of the toxic disease protein. An initial starter culture was inoculated in 3 mL CSM-Glucose media and incubated overnight in a 30° C. shaker incubator (225 rpm). Saturated morning cultures were then diluted 1:20 in fresh CSM-Raffinose media and grown for 6 h to an OD600 (optical density) of ˜0.4-0.8 at 30° C. with shaking.
(§5) Compound administration was performed in two separate steps. First, 15 μL of CSM-Galactose (induces expression of toxic protein) was dispensed into clear 384 well assay plates using a MULTIDROP™ Combi reagent dispenser. […] The cultures described above were then diluted to a 2× concentration (0.03 and 0.08 for alpha-synuclein and ApoE, final OD600 of 0.015 and 0.04) in CSM-Galactose. For wild-type and Ole1/SCD1/SCD5 plasmid-containing strains, the 2× cell density was 0.02. […] For 96-well assays (FIGS. 1A and 1B), compound dilutions in DMSO were generated in 96 well plates and 1 μL was manually pipetted into 96 well clear bottom assay plates.
(§6) For experiments using a plasmid-borne copy of Ole1, SCD1, or SCD5 (FIGS. 3B, 6, and 7), media lacking uracil (SX-Ura, where X is glucose, raffinose, or galactose), was used for all steps of the compound profiling protocol to ensure its maintenance throughout the assay.
(§7) After yeast delivery, assay plates were incubated under humidified conditions at 30° C. for 24 to 40 h. ApoE4 rescue experiments were stopped at 24 h, aSyn experiments at 40 h, Ole1 at 24 h, and SCD1/SCD5 at 40 h. The growth of yeast was monitored by reading the OD600 of each well using a microplate reader (Perkin Elmer EnVision™).

Compound | SCD5 % Max Inhibition
Cc1nn(C)c2cc(-c3nc(C4CCN(C(=O)OC(C)(C)C)CC4)no3)ccc12 [Compound 319] | 4.96% and 10.94%

Same assay, conditions: humanized yeast expressing human SCD5

Compound | IC50 [µM]
O=C([C@H]1CC(=O)N(c2ccccc2)C1)N1CCC(c2nc(N3CC4(COC4)C3)no2)CC1 [Compound 316] | ≥ 45
O=C(C1CC(=O)N(c2cccc(Cl)c2)C1)N1CCC(c2nc(Cl)no2)CC1 (stereo not shown) [Compound 348] | ≥ 45
N#Cc1cccc(N2CC(C(=O)N3CCC(c4nc(Cl)no4)CC3)CC2=O)c1 (stereo not shown) [Compound 350] | ≥ 45

Molecular target: T2, SCD1 (Homo sapiens, UniProt O00767)
T2 construct: host or cells: S. cerevisiae ole1Δ strain, plasmid pRS316 with TDH3 promoter and CYC1 terminator
T2 sequence (O00767 1-359): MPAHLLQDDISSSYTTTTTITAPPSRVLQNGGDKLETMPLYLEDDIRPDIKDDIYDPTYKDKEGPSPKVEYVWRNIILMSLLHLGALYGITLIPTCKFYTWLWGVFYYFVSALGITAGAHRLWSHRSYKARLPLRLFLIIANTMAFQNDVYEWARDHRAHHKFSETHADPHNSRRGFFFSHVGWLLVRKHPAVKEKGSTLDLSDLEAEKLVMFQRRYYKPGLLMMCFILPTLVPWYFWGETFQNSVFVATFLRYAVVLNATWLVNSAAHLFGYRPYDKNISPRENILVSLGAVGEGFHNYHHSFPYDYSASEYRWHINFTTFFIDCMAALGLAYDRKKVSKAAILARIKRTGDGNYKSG
Experiment: Growth inhibition of humanized yeast expressing SCD1 as sole desaturase
Type: cell-based
Conditions: humanized yeast expressing human SCD1
Protocol: as §1, §2, §3, §4, §5, §6, §7

Compound | IC50 [µM]
CC(C)n1ncc2ccc(-c3noc(C4CCN(C(=O)c5ccc(Cl)cc5F)CC4)n3)cc21 [Compound 533] | > 45
CC(C)n1ncc2ccc(N3CC4(CCN(C(=O)c5ccccc5Cl)CC4)C3)cc21 [Compound 534] | > 45
CC(=O)N[C@H]1CC[C@H](c2nc(-c3ccc4cnn(C(C)C)c4c3)no2)CC1 [Compound 535] | > 45
CC(C)n1ncc2ccc(-c3noc([C@H]4CC[C@@H](N)CC4)n3)cc21 [Compound 536] | > 45
CC(C)n1ncc2ccc(-c3noc([C@H]4CC[C@H](NC(=O)OC(C)(C)C)CC4)n3)cc21 [Compound 537] | > 45
CC(C)n1ncc2ccc(N3CC4(CCNCC4)C3)cc21 [Compound 538] | > 45
COc1ccc(S(=O)(=O)N2CCC(c3nc(-c4ccc5cnn(C(C)C)c5c4)no3)CC2)c(Br)c1 [Compound 539] | > 45
CC(C)n1ncc2ccc(-c3noc(C4CCN(S(=O)(=O)c5ccccc5Cl)CC4)n3)cc21 [Compound 540] | > 45
CC(C)n1ncc2ccc(-c3noc(C4CCN(C(=O)c5ccc(Cl)c(F)c5)CC4)n3)cc21 [Compound 541] | > 45
CC(C)n1ncc2ccc(-c3noc(C4CCN(C(=O)c5ccc(F)cc5)CC4)n3)cc21 [Compound 544] | > 45
Cn1ncc2ccc(-c3noc(N4CCN(C(=O)OC(C)(C)C)CC4)n3)cc21 [Compound 545] | > 45
CC(C)n1ncc2ccc(-c3nc(C4CCN(C(=O)CC5(C)CC5)CC4)no3)cc21 [Compound 546] | > 45
CC(C)n1ncc2ccc(-c3nc(N4CCN(C(=O)OC(C)(C)C)CC4)no3)cc21 [Compound 548] | > 45
CC(C)n1ncc2ccc(-c3noc(C4CCN(C(=O)c5nccs5)CC4)n3)cc21 [Compound 549] | > 45
COC(=O)N[C@H]1CC[C@@H](c2nc(-c3ccc4c(C)nn(C)c4c3)no2)CC1 [Compound 550] | > 45
CC(C)n1ncc2ccc(-c3noc(N4CC5(CCN(C(=O)OC(C)(C)C)CC5)C4)n3)cc21 [Compound 555] | > 45
CC(C)n1ncc2ccc(-c3noc(C4CCN(C(=O)CNC(=O)c5cccc(C#N)c5)CC4)n3)cc21 [Compound 556] | > 45
O=C(CC1CC1)N1CCC(c2nc(-c3ccc4cnn(C5COC5)c4c3)no2)CC1 [Compound 558] | > 45
CC1(CC(=O)N2CCC(c3nc(-c4ccc5cnn(C6COC6)c5c4)no3)CC2)CC1 [Compound 559] | > 45
CCc1cnc(N2CCC(c3nc(-c4ccc5c(C)nn(C)c5c4)no3)CC2)cn1 [Compound 560] | > 45
COC(=O)N1CCC(c2nc(-c3ccc4cnn(C(F)F)c4c3)no2)CC1 [Compound 561] | > 45
O=C(c1ccccc1Cl)N1CCC(c2nc(-c3ccc4cnn(C5COC5)c4c3)no2)CC1 [Compound 562] | > 45
O=C(c1ccccc1)N1CCC(c2nc(-c3ccc4cnn(C5COC5)c4c3)no2)CC1 [Compound 564] | > 45
CC(C)CS(=O)(=O)N1CCC(c2nc(-c3ccc4cnn(C(C)C)c4c3)no2)CC1 [Compound 565] | > 45
COC(=O)N1C[C@H]2CN(c3nc(-c4ccc5cnn(C(C)C)c5c4)no3)C[C@@H]2C1 [Compound 568] | > 45
CC(C)n1ncc2ccc(-c3noc(N4C[C@@H]5CN(C(=O)CC(C)(C)C)C[C@H]5C4)n3)cc21 [Compound 569] | > 45

Compound | IC50 [µM]
COC(=O)N1CCC2(CC1)CN(c1nc(-c3ccc4cnn(C(C)C)c4c3)no1)C2 [Compound 570] | > 45
CC(=O)N1CCC2(CC1)CN(c1nc(-c3ccc4cnn(C(C)C)c4c3)no1)C2 [Compound 571] | > 45
CC(C)N1C(=O)CCc2ccc(-c3noc(C4CCN(C(=O)OC(C)(C)C)CC4)n3)cc21 [Compound 572] | > 45
CC(C)n1ncc2ccc(-c3noc(C4CCN(C(=O)c5cscn5)CC4)n3)cc21 [Compound 573] | > 45
CC(C)n1ncc2ccc(-c3noc(C4CCN(C(=O)c5cccs5)CC4)n3)cc21 [Compound 574] | > 45
CC(C)n1ncc2ccc(-c3noc(C4CCN(C(=O)c5ccsc5Cl)CC4)n3)cc21 [Compound 575] | > 45
CC1(OC(=O)N2CCC(c3nc(-c4ccc5cnn(C6COC6)c5c4)no3)CC2)CC1 [Compound 576] | > 45
Cc1nn(C)c2cc(-c3noc([C@@H]4CCN(C(=O)CNC(=O)c5ccccc5)CC4(F)F)n3)ccc12 [Compound 577] | > 45
Cc1nn(C)c2cc(-c3noc(C4CCN(c5nc(C(C)C)no5)CC4)n3)ccc12 [Compound 581] | > 45
CC(C)n1ncc2ccc(-c3nc(N4CCN(C(=O)c5ccccc5)CC4)no3)cc21 [Compound 582] | > 45
CC(C)n1ncc2ccc(-c3noc(C4CCN(C(=O)c5ccc(Cl)cn5)CC4)n3)cc21 [Compound 586] | > 45
CC(C)n1ncc2ccc(-c3noc(C4CCN(C(=O)c5ncccc5Cl)CC4)n3)cc21 [Compound 587] | > 45
CC(C)n1ncc2ccc(-c3noc(C4CCN(C(=O)c5ccsn5)CC4)n3)cc21 [Compound 588] | > 45
CC(C)n1ncc2ccc(-c3noc(C4CCN(C(=O)c5ncc(Cl)s5)CC4)n3)cc21 [Compound 589] | > 45
Cc1noc2cc(-c3noc(C4CCN(C(=O)OC5(C)CC5)CC4)n3)ccc12 [Compound 590] | > 45
Cc1noc2cc(-c3noc(C4CCN(C(=O)CC5(C)CC5)CC4)n3)ccc12 [Compound 591] | > 45
Cc1nn(C)c2cc(-c3noc(C4CCN(C(=O)CC5COC5)CC4)n3)ccc12 [Compound 592] | > 45
CC(C)n1ncc2ccc(-c3noc(N4CCN(C(=O)OCC(F)(F)F)CC4)n3)cc21 [Compound 593] | > 45
CC(C)n1ncc2ccc(N3CC4(CCN(C(=O)OC5CC5)CC4)C3)cc21 [Compound 594] | > 45
COCC(=O)N1CCN(c2nc(-c3ccc4cnn(C(C)C)c4c3)no2)CC1 [Compound 595] | > 45
CC(C)n1ncc2ccc(-c3noc([C@H]4CC[C@H](N)CC4)n3)cc21 [Compound 596] | > 45
C[C@@H](O)C(=O)N1CCC(c2nc(-c3ccc4cnn(C5COC5)c4c3)no2)CC1 [Compound 597] | > 45
O=C(NCC(=O)N1CCC(c2nc(-c3ccc4cnn(C5COC5)c4c3)no2)CC1)c1ccccc1 [Compound 598] | > 45
N#Cc1cccc(N2C[C@@H](C(=O)N3CCC(c4nc(-c5ccc6cnn(C7COC7)c6c5)no4)CC3)CC2=O)c1 [Compound 599] | > 45
N#Cc1cccc(N2C[C@H](C(=O)N3CCC(c4nc(-c5ccc6cnn(C7COC7)c6c5)no4)CC3)CC2=O)c1 [Compound 600] | > 45
